Laboratory results: paper PMC4212957, “The serodominant secreted effector protein of Salmonella, SseB, is a strong CD4 antigen containing an immunodominant epitope presented by diverse HLA class II alleles” (Immunology, 2014)

Experiments:
[1] = test system: draining lymph node cells of HLA-DR1 transgenic mice; experiment: Murine IFN-γ ELISpot, HLA-DR1 transgenic mice primed with SseB; conditions: mouse, in vivo
From the text: Mice transgenic for HLA-DR1 (that is, HLA-DRA1*0101/HLA-DRB1*0101) and HLA-DR4 (that is, HLA-DRA1*0101/HLA-DRB1*0401)[24]–[26] were bred and housed in the Centre for Biological Services at the Hammersmith campus, Imperial College London, UK, in accordance with Home Office regulations and College ethics review. Both transgenic lines are maintained on a C57BL/6 background as homozygotes for knockout of murine MHC Class II H2-Aβ.[27]
HLA-DR1 or HLA-DR4 transgenic mice were primed, by subcutaneous injection into the footpad, with 25 μg of recombinant SseB protein administered as a 1 : 1 emulsion with TiterMax® Gold (CytRx Corporation, Los Angeles, CA). Ten days after priming, popliteal draining lymph nodes were harvested and stimulated, in triplicate, at 2 × 10^5 cells per well with 25 μg of SseB peptide or recombinant protein in pre-coated murine IFN-γ ELISpot plates (2BScientific, Upper Heyford, Oxfordshire, UK). Culture medium was RPMI-1640 containing 2 mM L-glutamine, 50 U/ml penicillin G, 50 μg/ml streptomycin sulphate, 50 μM β-mercaptoethanol and 10% fetal calf serum. Cells were cultured at 37° and in 5% CO2 for 72 hr before assay development using a biotinylated anti-IFN-γ antibody, a horseradish peroxidase detection antibody and TMB substrate (2BScientific). Developed plates were left to dry before spot counting using an AID ELISpot reader (Autoimmun Diagnostika GMBH). Positive epitopes for a given transgenic line were defined as those where more than half of assayed animals gave a greater number of spot-forming cells than 2 SD over the mean of the no protein/peptide control.
Fig 1 Definition of HLA-DR specific T-cell epitopes in DR1 and DR4 transgenic mice. (a) HLA-DR1 (n = 5) and (b) HLA-DR4 (n = 6) mice were footpad primed with ssEB protein in combination with TiterMax® Gold adjuvant. Draining lymph node (DLN) cells were assayed by ELISpot at day 10 for interferon-γ (IFN-γ) T-cell responses to ssEB peptides and protein. A peptide was defined as containing a T-cell epitope for DR1 or DR4 HLA molecules if more than half of the mice assayed gave a greater number of spot-forming cells than 2 SD over the mean of the no peptide/protein control. The 2 SD value for each transgenic line is shown by a dotted line.

[2] = test system: PBMCs; experiment: Human IFN-γ ELISpot; format: cell-based; conditions: 50 μg/ml peptide, 2 × 10^5 PBMCs, 24 hr; both cohorts; positive if > 2 SD above no-peptide/protein control
Protocol: CD4 T cell responses to SseB were analysed in peripheral blood mononuclear cell (PBMC) samples from healthy control donors with no reported clinical history of Salmonella infection and from donors who had been experimentally challenged with S. Typhi 12 months previously as described elsewhere.[28] Healthy control blood samples were collected with informed consent, under the approval of Ethics REC reference number 08/H0707/173. The S. Typhi challenge participants were recruited by the Oxford Vaccine Group, University of Oxford and the study was performed at the Centre for Clinical Vaccinology and Tropical Medicine, Oxford. Ethics approval was obtained from the NRES Committee South Central – Oxford A (11/SC/0302). Written, informed consent was provided by all participants. A pre-determined bacterial dose (10^4 colony-forming units) of challenge agent (Quailes strain) was delivered by oral ingestion suspended in a sodium bicarbonate solution.[28] Study exclusion criteria included previous typhoid vaccination, residence in a typhoid endemic country for over 6 months and known diagnosis of a probably or confirmed typhoid infection. Blood samples were collected and PBMCs were purified by Lymphoprep density gradient separation.
Human IFN-γ ELISpot assays were run using reagents from Mabtech (Stockholm, Sweden). Briefly, 2 × 10^5 thawed PBMCs were incubated in pre-coated human IFN-γ ELISpot plates, in triplicate, with 50 μg/ml of SseB peptide or recombinant protein (25 μg/ml) in RPMI-1640 medium containing 2 mM L-glutamine, 50 U/ml penicillin G, 50 μg/ml streptomycin sulphate and 10% fetal calf serum. […] Developed plates were left to dry before spot counting using an AID ELISpot reader (Autoimmun Diagnostika GMBH, Straßberg, Germany). […] To better define HLA restriction, human donor ELISpot responses were also analysed in the presence of HLA class II blocking monoclonal antibodies at a final concentration of 25 μg/ml: L243 (anti-HLA-DRα), SPVL-3 (anti-HLA-DQ), B7/21 (anti-HLA-DP) and control mouse IgG. […]

[3] = target: HLA-DRB1*04:01 (Homo sapiens, UniProt P01903+P01911, A100K/A169T/F76Y/I96L/K127E/L162R/M171V/N62H/P40V/Q125Y/R42H/S133A/S149N/S66Y/V115G/V209L/W38E); conditions: competitive ELISA; ratio IC50 of peptide / IC50 of reference peptide HA 306–318; lower = higher affinity; ratio 20 or less high, 20–100 moderate; three independent experiments
[4] = target: HLA-DRB1*01:01 (Homo sapiens, UniProt P01903+P01911, A100R/D57E/F55L/F60I/F76Y/I96L/L162R/M171V/P40L/Q125E/R42F/V115G/Y59C); conditions: competitive ELISA; ratio IC50 of peptide / IC50 of reference peptide HA 306–318; lower = higher affinity; ratio 20 or less high, 20–100 moderate; three independent experiments

Substance | IFN-γ ELISpot recall response / CD4 epitope in HLA-DR1 transgenic mice [1] | human CD4 T-cell IFN-γ ELISpot response to peptide [2] | Relative binding affinity of peptide to HLA-DR molecules DRB1*0401 [3] | Relative binding affinity of peptide to HLA-DR molecules DRB1*0101 [4]
2: SseB overlapping library peptide, residues 11–30 (QNPIVFKNSFGVSNADTGSQ) [Peptide 2] | carry HLA-DR1 restricted immunodominant CD4 epitopes | largest and most common peptide responses | 9 | 300
11: SseB overlapping library peptide, residues 101–120 (EDVIKYMRDNGILIDGMTID) [Peptide 11] | carry HLA-DR1 restricted immunodominant CD4 epitopes | largest and most common peptide responses | 17 | 61
AVLTQLTGLISKWGEISSMIAQKTYS [Peptide 18] | carry HLA-DR1 restricted immunodominant CD4 epitopes | less frequent among the epitopes recognized | 2 | 2
